# Measured values: ChEMBL document CHEMBL1129911, “Synthesis, characterization, interaction with DNA, and antitumor activity of a cis-Dichloroplatinum(II) complex linked to an intercalator via one methylene chain” (Bioorg Med Chem Lett, 1997)
# Test system: Nucleic Acid
# Experiment: The association constant was obtained from absorption spectral change
# Type: nucleic-acid assay
structure (smiles),measurement,value
NCCNCc1c2ccccc2nc2ccccc12,K ass,36000 M⁻¹
